Data taken from paper PMC2954223, “Structure of a tryptophanyl-tRNA synthetase containing an iron–sulfur cluster” (Acta Crystallographica Section F: Structural Biology and …, 2010).

Assays:
TmTrpRS (TM0492) [1] = target: T1, TmTrpRS (TM0492) (Thermotoga maritima, UniProt Q9WYW2); test: X-ray crystal structure, […] Å; format: binding; settings: active site (Rossmann-fold domain); endogenously bound, not added; crystallised at pH 6.5, 277 K
T1 construct: gene trpS; full-length with noncleavable N-terminal tag MGSDKIHHHHHH (kept in crystal), expressed in E. coli DL41; native TTG start codon lies in forward primer after the tag; model residues 0-328, 113-119 disordered; homodimer
T1 sequence (Q9WYW2 1-328): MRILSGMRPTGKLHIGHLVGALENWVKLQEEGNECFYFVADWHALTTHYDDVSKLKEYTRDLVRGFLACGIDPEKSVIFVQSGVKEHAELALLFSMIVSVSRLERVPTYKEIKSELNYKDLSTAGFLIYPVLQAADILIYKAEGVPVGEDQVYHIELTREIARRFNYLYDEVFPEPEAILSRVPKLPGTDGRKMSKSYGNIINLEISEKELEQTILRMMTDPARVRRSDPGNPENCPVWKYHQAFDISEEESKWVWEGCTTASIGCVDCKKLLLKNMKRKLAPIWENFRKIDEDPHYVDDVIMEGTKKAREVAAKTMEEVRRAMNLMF

TmTrpRS (TM0492) [2] = target: T1, TmTrpRS (TM0492); test: X-ray crystal structure, […] Å; X-ray fluorescence scan; mass spectrometry; format: binding; settings: TAB domain; chelated by Cys236, Cys259, Cys266, Cys269; co-purified; crystallised at pH 6.5, 277 K

Row | Structure (SMILES) | X-ray crystal structure, 2.50 Å (TmTrpRS (TM0492) [1]) | X-ray crystal structure, 2.50 Å; X-ray fluorescence scan; mass spectrometry (TmTrpRS (TM0492) [2])
1 | N[C@@H](Cc1c[nH]c2ccccc12)C(=O)O [L-tryptophan] | the structure revealed a bound L-tryptophan molecule in the Trp-binding pocket of the active site | –
2 | [S]12[Fe]3[S]4[Fe]1[S]1[Fe]2[S]3[Fe]41 [[4Fe–4S] cluster] | – | The [4Fe–4S] cluster is chelated by the side chains of Cys236, Cys259, Cys266 and Cys269
